Holding throughout (test): TEVC in Xenopus oocytes
What all share (assay type): cell-based

In one assay the target is T1, K2P10.1 (TREK-2)^CG* (Mus musculus, UniProt Q8BUW1, S153C).
T1 construct: Modified TREK-2 from Mus musculus; expressed in transfected cells; host or cells: Xenopus laevis oocytes injected with mRNA
T1 sequence (Q8BUW1 with tags, fused parts or gaps S153C): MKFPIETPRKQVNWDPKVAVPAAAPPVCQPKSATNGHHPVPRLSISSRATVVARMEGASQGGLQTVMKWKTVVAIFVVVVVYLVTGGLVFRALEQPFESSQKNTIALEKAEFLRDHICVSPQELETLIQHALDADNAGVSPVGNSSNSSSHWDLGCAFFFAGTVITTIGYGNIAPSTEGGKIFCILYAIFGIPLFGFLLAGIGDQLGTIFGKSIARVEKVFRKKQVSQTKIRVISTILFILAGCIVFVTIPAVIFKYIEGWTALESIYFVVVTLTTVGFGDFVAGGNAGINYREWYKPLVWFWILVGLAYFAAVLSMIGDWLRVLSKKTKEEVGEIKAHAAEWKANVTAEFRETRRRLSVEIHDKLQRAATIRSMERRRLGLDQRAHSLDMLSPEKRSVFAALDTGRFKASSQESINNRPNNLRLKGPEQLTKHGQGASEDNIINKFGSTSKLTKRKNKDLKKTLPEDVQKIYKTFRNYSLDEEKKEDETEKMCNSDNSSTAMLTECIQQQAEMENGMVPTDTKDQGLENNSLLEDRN
As to conditions: 20 μM, Xenopus oocytes.

The next assay addresses T2, K2P18.1 (TRESK)^CG* (Mus musculus, UniProt Q6VV64, S116C).
T2 construct: expressed in transfected cells; host or cells: Xenopus laevis oocytes injected with mRNA
T2 sequence (Q6VV64 1-394 S116C): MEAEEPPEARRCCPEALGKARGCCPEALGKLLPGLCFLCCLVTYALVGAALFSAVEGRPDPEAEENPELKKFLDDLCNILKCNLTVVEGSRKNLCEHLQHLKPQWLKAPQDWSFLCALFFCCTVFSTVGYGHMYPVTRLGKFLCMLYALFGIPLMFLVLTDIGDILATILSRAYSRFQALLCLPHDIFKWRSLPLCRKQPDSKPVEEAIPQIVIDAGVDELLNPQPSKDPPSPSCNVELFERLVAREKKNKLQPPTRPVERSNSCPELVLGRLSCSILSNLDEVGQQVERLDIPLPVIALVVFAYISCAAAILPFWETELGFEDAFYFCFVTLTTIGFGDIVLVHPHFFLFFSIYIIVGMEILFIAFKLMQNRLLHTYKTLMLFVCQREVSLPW
The settings on record: 20 μM.

The next assay concerns the target T3, K2P2.1 (TREK-1) S131A (Mus musculus, UniProt P97438, S146A).
T3 construct: expressed in transfected cells; host or cells: Xenopus laevis oocytes injected with mRNA
T3 sequence (P97438 1-411 isoform P97438-2 S131A): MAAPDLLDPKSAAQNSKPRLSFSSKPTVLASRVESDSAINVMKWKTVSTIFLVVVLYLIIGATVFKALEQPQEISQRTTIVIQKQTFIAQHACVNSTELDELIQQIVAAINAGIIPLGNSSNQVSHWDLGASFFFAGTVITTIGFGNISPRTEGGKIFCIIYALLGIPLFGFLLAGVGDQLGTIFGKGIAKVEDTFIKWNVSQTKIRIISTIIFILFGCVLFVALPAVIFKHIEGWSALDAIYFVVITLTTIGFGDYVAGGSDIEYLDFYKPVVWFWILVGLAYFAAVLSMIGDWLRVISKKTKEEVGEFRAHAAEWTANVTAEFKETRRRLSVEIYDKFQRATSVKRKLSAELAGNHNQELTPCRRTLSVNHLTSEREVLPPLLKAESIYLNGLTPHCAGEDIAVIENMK
The settings on record: 20 μM, 0 mV.

With `O=C(NCc1ccc(Cl)cc1Cl)c1ccc(N2C(=O)C=CC2=O)cc1` [CAT335], the “Fold-activation (I activator/I control)” value at K2P10.1 (TREK-2)^CG* (0 mV) is 18±2 fold. In addition, at K2P10.1 (TREK-2)^CG*, the Reversibility of activation result was “irreversibly activated”. In addition, the Activation of channel entry on K2P18.1 (TRESK)^CG* is “not activated”.
`CS(=O)(=O)Nc1ccc(C(=O)NCc2ccc(Cl)cc2Cl)cc1` [ML335, reference compound]: the “Fold-activation (I activator/I control)” value at K2P2.1 (TREK-1) S131A turned out to be 6.8 fold.

For the origin of these results see patent publication US20260098008A1, “COVALENT, CHEMOGENETIC ACTIVATORS FOR K2P POTASSIUM CHANNELS AND USES THEREOF” (THE REGENTS OF THE UNIVERSITY OF CALIFORNIA, priority 2022, published 2026).
